Reference: the CheMixHub viscosity set

Assay: xn = mol fraction of the nth substance listed

CCC(=O)OC + C1CCCCC1
viscosity [mPa·s], 101 kPa
Details	298.15 K	308.15 K
x1 = 0.0565	0.827	0.699
x1 = 0.1524	0.742	0.621
x1 = 0.2574	0.67	0.556
x1 = 0.3378	0.626	0.517
x1 = 0.4555	0.578	0.475
x1 = 0.4981	0.565	0.463
x1 = 0.5542	0.55	0.45
x1 = 0.6536	0.532	0.434
x1 = 0.7514	0.522	0.426
x1 = 0.8265	0.519	0.424
x1 = 0.9564	0.526	0.432

CCCCn1cc[n+](C)c1.[Cl-] + CC#N
Details	viscosity [mPa·s]
308.15 K, 101 kPa, x2 = 0.7003	8.47

CCCOCCO + CC(=O)N(C)C
298.15 K, 101 kPa
Details	viscosity [mPa·s]
x1 = 0.0049	0.951
x1 = 0.0086	0.956
x1 = 0.0134	0.961
x1 = 0.0272	0.982
x1 = 0.0419	1.01
x1 = 0.0739	1.049
x1 = 0.1253	1.125
x1 = 0.178	1.202
x1 = 0.2555	1.322
x1 = 0.3191	1.426
x1 = 0.3487	1.478
x1 = 0.3842	1.536
x1 = 0.4022	1.578
x1 = 0.4678	1.679
x1 = 0.5258	1.786
x1 = 0.5917	1.897
x1 = 0.6504	1.987
x1 = 0.725	2.094
x1 = 0.8523	2.26
x1 = 0.9508	2.339
x1 = 0.979	2.345

N#Cc1ccccc1 + CC(C)(C)O
viscosity [mPa·s], 101.33 kPa
Details	x1 = 0.0567	x1 = 0.1542	x1 = 0.2837	x1 = 0.3997	x1 = 0.4923	x1 = 0.5993	x1 = 0.7289	x1 = 0.8283	x1 = 0.8923
303.15 K	2.895	2.017	1.578	1.365	1.262	1.203	1.142	1.121	1.114
308.15 K	2.311	1.696	1.368	1.223	1.137	1.094	1.043	1.034	1.028
313.15 K	1.811	1.429	1.187	1.072	1.021	1.001	0.98	0.962	0.951

CCCOCCO + CC(C)O
298.15 K, 101.33 kPa
Details	viscosity [mPa·s]
x1 = 0.0175	2.056
x1 = 0.0326	2.039
x1 = 0.0724	2.009
x1 = 0.0909	1.994
x1 = 0.1266	1.98
x1 = 0.1696	1.971
x1 = 0.2052	1.967
x1 = 0.249	1.967
x1 = 0.295	1.97
x1 = 0.3499	1.977
x1 = 0.398	1.993
x1 = 0.4072	1.997
x1 = 0.4661	2.019
x1 = 0.5167	2.041
x1 = 0.556	2.061
x1 = 0.6058	2.084
x1 = 0.6612	2.119
x1 = 0.7297	2.159
x1 = 0.7751	2.192
x1 = 0.8315	2.23
x1 = 0.8979	2.275
x1 = 0.9565	2.318

CCC(=O)OC + CCCCCCC
viscosity [mPa·s], 101.3 kPa
Details	308.15 K	318.15 K
x1 = 0.0447	0.354	0.322
x1 = 0.1083	0.355	0.326
x1 = 0.1932	0.358	0.332
x1 = 0.3018	0.362	0.34
x1 = 0.4146	0.369	0.349
x1 = 0.5227	0.377	0.359
x1 = 0.5693	0.381	0.363
x1 = 0.7002	0.395	0.377
x1 = 0.7986	0.407	0.389
x1 = 0.9016	0.421	0.402
x1 = 0.9509	0.429	0.409

CC(C)C(C)C + CCCCCCCCCCCC
298 K, 101.33 kPa
Details	viscosity [mPa·s]
x1 = 0.101	1.237
x1 = 0.2039	1.127
x1 = 0.297	1.018
x1 = 0.4013	0.898
x1 = 0.4985	0.7936
x1 = 0.6035	0.6871
x1 = 0.7426	0.5433
x1 = 0.8116	0.4795
x1 = 0.9014	0.4023

CC(C)C(C)C + CCCCCCCCCCCCCC
298 K, 101.33 kPa
Details	viscosity [mPa·s]
x1 = 0.1	1.884
x1 = 0.2006	1.669
x1 = 0.3044	1.451
x1 = 0.4033	1.246
x1 = 0.503	1.051
x1 = 0.6031	0.8719
x1 = 0.701	0.7123
x1 = 0.8016	0.5711
x1 = 0.9008	0.4356

CC(C)C(C)C + CCCCCCCCCCCCCCCC
298 K, 101.33 kPa
Details	viscosity [mPa·s]
x1 = 0.0846	2.773
x1 = 0.2077	2.325
x1 = 0.2966	2.045
x1 = 0.3988	1.74
x1 = 0.4973	1.432
x1 = 0.6023	1.135
x1 = 0.7034	0.8764
x1 = 0.8019	0.6623
x1 = 0.9002	0.4751

CCCOCCO + CCCCCO
298.15 K, 101.33 kPa
Details	viscosity [mPa·s]
x1 = 0.0215	3.463
x1 = 0.0339	3.418
x1 = 0.0569	3.355
x1 = 0.0878	3.254
x1 = 0.1148	3.179
x1 = 0.1461	3.103
x1 = 0.1776	3.025
x1 = 0.2194	2.928
x1 = 0.2669	2.847
x1 = 0.327	2.776
x1 = 0.3773	2.72
x1 = 0.4289	2.667
x1 = 0.4842	2.61
x1 = 0.4911	2.608
x1 = 0.5387	2.574
x1 = 0.5721	2.548
x1 = 0.61	2.524
x1 = 0.6569	2.493
x1 = 0.7066	2.458
x1 = 0.7368	2.441
x1 = 0.7698	2.426
x1 = 0.8114	2.404
x1 = 0.8483	2.389
x1 = 0.8888	2.374
x1 = 0.9244	2.363
x1 = 0.963	2.353
x2 = 0.0102	2.35

N#Cc1ccccc1 + CCCCCO
viscosity [mPa·s], 101.33 kPa
Details	x1 = 0.1034	x1 = 0.1623	x1 = 0.3038	x1 = 0.387	x1 = 0.5033	x1 = 0.6086	x1 = 0.7205	x1 = 0.82	x1 = 0.9162
303.15 K	2.395	2.152	1.737	1.558	1.374	1.262	1.182	1.153	1.14
308.15 K	2.116	1.925	1.565	1.406	1.244	1.162	1.097	1.079	1.064
313.15 K	1.895	1.723	1.412	1.283	1.14	1.07	1.017	1.01	0.993

CC(=O)CCc1ccccc1 + CCCCCOC(C)=O
298.15 K, 101 kPa
Details	viscosity [mPa·s]
x1 = 0.0322	0.8102
x1 = 0.0702	0.8323

CCCCC[N+](CC)(CC)CC.O=S(=O)([N-]S(=O)(=O)C(F)(F)F)C(F)(F)F + CCCCC[P+](CC)(CC)CC.O=S(=O)([N-]S(=O)(=O)C(F)(F)F)C(F)(F)F
viscosity [mPa·s], 101.3 kPa
Details	298.15 K	303.15 K	308.15 K	313.15 K	318.15 K
x1 = 0.2	96.6	75.4	59.8	–	–
x1 = 0.4	–	83.6	65.8	52.7	–
x1 = 0.6	–	94.3	73.6	58.4	–
x1 = 0.8	–	–	83.8	–	52.8

N#Cc1ccccc1 + CCCCO
viscosity [mPa·s], 101.33 kPa
Details	x1 = 0.033	x1 = 0.1519	x1 = 0.2155	x1 = 0.3392	x1 = 0.4092	x1 = 0.504	x1 = 0.6218	x1 = 0.7894	x1 = 0.9629
303.15 K	2.094	1.716	1.583	1.382	1.3	1.213	1.149	1.108	1.119
308.15 K	1.844	1.534	1.414	1.245	1.186	1.108	1.053	1.021	1.04
313.15 K	1.66	1.378	1.281	1.14	1.08	1.02	0.976	0.945	0.978

Nc1cccc2ccccc12 + CCCCO
viscosity [mPa·s], 101 kPa
Details	x1 = 0.03572	x1 = 0.06889	x1 = 0.1289	x1 = 0.1817	x1 = 0.2285	x1 = 0.2702	x1 = 0.3076
293.15 K	3.082	3.202	3.539	3.906	4.311	4.724	5.193
303.15 K	2.355	2.427	2.641	2.879	3.134	3.39	3.681
313.15 K	1.828	1.878	2.019	2.186	2.355	2.532	2.719
323.15 K	1.456	1.494	1.596	1.718	1.839	1.965	2.097

C[n+]1ccn(CCc2ccccc2)c1.[Cl][Al-]([Cl])([Cl])[Cl] + CCCC[n+]1ccn(C)c1.[Cl][Al-]([Cl])([Cl])[Cl]
viscosity [mPa·s], 101 kPa
Details	293.15 K	298.15 K	303.15 K	308.15 K	313.15 K	318.15 K	323.15 K
x2 = 0.5	92.4	74.8	60.6	50.1	41.7	36.4	32.1
x2 = 0.6	75.1	60	50.6	41.6	35.6	30.4	27

CCCOCCO + CCCN
viscosity [mPa·s], 101.33 kPa
Details	298.15 K	308.15 K	318.15 K
x1 = 0.0069	0.365	0.336	0.296
x1 = 0.0201	0.383	0.346	0.307
x1 = 0.054	0.429	0.385	0.335
x1 = 0.1049	0.509	0.446	0.382
x1 = 0.1955	0.678	0.574	0.481
x1 = 0.2496	0.797	0.668	0.55
x1 = 0.3215	0.969	0.8	0.655
x1 = 0.3686	1.103	0.895	0.722
x1 = 0.4528	1.338	1.075	0.853
x1 = 0.4581	1.355	1.088	0.862
x1 = 0.5595	1.629	1.289	1.015
x1 = 0.6789	1.925	1.51	1.175
x1 = 0.752	2.082	1.628	1.265
x1 = 0.8162	2.191	1.715	1.32
x1 = 0.8943	2.282	1.803	1.385
x1 = 0.9697	2.333	1.867	1.435
